Assay results: patent US9801885B2, “Transvaginal phosphodiesterase inhibitors for infertility treatment” (PROKREA BCN, S.L., priority 2011, dated 2017)
Entries after “also recorded” stand apart in the source; their conditions may differ.

Tests used:
[1] = tested on: sperm of a semen sample from a patient with asthenozoospermia; assay: In vitro assay of the effect of phosphodiesterase inhibitors on sperm motility; format: cell-based, human; design: key to Increase in sperm speed: the symbol ++ denotes a very significant increase in sperm motility; details: vs untreated sample; for Increase in sperm type A + B: mixed 1:1 with semen; for Increase in sperm speed: subjective rating, all sperm types
Description: In each case the corresponding phosphodiesterase inhibitor (rolipram, milrinone, ibudilast and pentoxifylline) was dissolved in a commercial medium suitable for performing sperm preparations (SpermRinse®) to the desired concentration. […] A semen sample was taken from a patient with asthenozoospermia and it was kept at room temperature for 5 minutes after liquefaction, it was mixed with SpermRinse® solution without phosphodiesterase inhibitor in a volumetric ratio of 1:1. Another part of the semen was mixed also after liquefaction with the SpermRinse® solution containing the phosphodiesterase inhibitor also in a proportion of 1:1 by volume. For each observation, 3 microdrops of the preparation were used, they were placed under an optical microscope with 20× objective and Makler camera. A sperm count was performed, the number of type A sperm (advancing rapidly, with rectilinear trajectory) and type B sperm (advancing rapidly, with curvilinear trajectory) of each sample being counted. This was performed for the untreated sample and for the samples treated with the phosphodiesterase inhibitor. Three readings were made for each sample and the mean value was calculated. Likewise, a subjective observation of the increase of sperm speed of all the sperm types was also performed for the samples treated with the phosphodiesterase inhibitor, with respect to the untreated samples.

[2] = tested on: couples with infertility; assay: Assay of the effectiveness of intravaginal pentoxifylline in the treatment of couples with infertility; format: in vivo, human
Description: The most fertile days were determined by cervical mucus test, vaginal ultrasound, or ovulation test. An ovulation inducer, clomiphene or purified human gonadotrofin, irrespectively, was simultaneously administered to 6 of the couples. The gel was administered in 3 different cycles or in several days of the same cycle. A meeting was conducted with the patients between 15 and 20 hours after each administration and a microscopic examination of the endocervical exudate was performed.

[3] = tested on: infertile men with asthenozoospermia; details: 1200 mg daily for four months, cited from earlier work
[4] = microscopic examination 15 to 20 hours after transvaginal administration

SMILES | Increase in sperm type A + B ([1]; 100 μM in SpermRinse) | Increase in sperm speed ([1]; 100 μM) | Increase in sperm type A + B ([1]; 1 μM in SpermRinse) | Increase in sperm speed ([1]; 1 μM) | pregnancies achieved ([2]; among 20 couples, transvaginal gel of Example 2) | cervical mucus characteristics (filancia, transparency, leukocytic diathesis) [2, 4] | type A sperm (WHO classification) counted in cervical exudate [2, 4] | sperm quality in terms of motility in cervical exudate ([2]; microscopic examination 15 to 20 hours after transvaginal administration, asthenozoospermia and normospermia) | side effects due to the treatment ([2]; transvaginal administration in women) | pregnancy percentage (effectiveness) ([2]; transvaginal, three single-doses of 10 g gel of Example 2 (4% pentoxifylline), after coitus, 20 couples) [%] | pregnancies counted after oral treatment ([3]; 15 infertile men) | pregnancy percentage after oral treatment ([3]; 15 infertile men) [%] | sperm motility of the subjects treated ([3]; oral)
CC(C)C(=O)c1c(C(C)C)nn2ccccc12 [Ibudilast, 2-methyl-1-(2-(1-methyethyl)pyrazolo(1,5-a)pyridin-3-yl)-1-propanone] | ++ (the symbol ++ indicates an increase greater than 40% in the A+B sperm type count) | ++ | – | – | – | – | – | – | – | – | – | – | –
Cc1[nH]c(=O)c(C#N)cc1-c1ccncc1 [Milrinone, 1,6-dihydro-2-methyl-6-oxo-(3,4′-bipyridine)-5-carbonitrile] | – | – | ++ (the symbol ++ indicates an increase greater than 40% in the A+B sperm type count) | ++ | – | – | – | – | – | – | – | – | –
CC(=O)CCCCn1c(=O)c2c(ncn2C)n(C)c1=O [Pentoxifylline, 3,7-dihydro-3,7-dimethyl-1-(5-oxohexyl)-1H-purine-2,6-dione] | – | – | ++ (the symbol ++ indicates an increase greater than 40% in the A+B sperm type count) | ++ | 4 | maintains and even improves the characteristics of cervical mucus; also recorded: improvement in the characteristics of cervical mucus | significant number of type A sperm | improvement in sperm quality in terms of motility | not observed in any case; also recorded: does not cause any type of allergy or side effect | 20 | 2 | 13.3 | substantial improvement in sperm motility
